Results reported in patent US5156955A, “Nucleoside oxidase and assay method utilizing same” (priority 1988, dated 1992).
Read-outs that look alike come from different tables or passages of the source.

Tests used:
Format in all cases: biochemical, Pseudomonas maltophilia LB-86
nucleoside oxidase YT-1 [1] = assay: Substrate specificity test (nucleoside oxidase activity, oxygen consumption); details: for Relative activity: relative to activity on inosine taken as 100
Experimental: (§1) The consumption of 1 μM of oxygen per minute is taken as 1 unit (U).

nucleoside oxidase YT-1 [2] = assay: Influence of metal ions on the activity; details: enzyme 0.02 U on inosine, pH 6.0, 25° C., 10 minutes
Experimental: A solution of the enzyme (0.02 U) was caused to act on inosine at pH 6.0 and 25° C. for 10 minutes in the presence of various metal ions, and the activity of the enzyme was thereafter measured to check the influence of the metal ions on the activity.

nucleoside oxidase YT-1 [3] = assay: Enzymatic activity test I: oxidation reaction products and stoichiometry; details: for oxygen consumption: 1 ml 100 mM phosphate buffer; for change on reaction with the enzyme sample (HPLC): peak separated off by HPLC and reacted with enzyme
Experimental: During a reaction period of 0 to 800 minutes, the reaction muxture was partly collected at suitable time intervals and analyzed by high performance liquid chromatography (HPLC) with a column of Fine SIL C18 (product of Japan Spectroscopic Co., Ltd.) using as a solvent 50 mM phosphate buffer (pH 3.0)/methanol=95/5 at a flow rate of 1.5 ml/min. Absorption was detected at 260 nm.
The amount of oxygen consumption was determined by an oxygen electrode, the amount of P-2 produced from the peak area of HPLC, and the amount of hydrogen peroxide by the phenol-4-aminoantipyrine peroxidase method and the ferrithiocyanide method (Ronald Thurman et al., Eur. J. Biochem., 25, 420-430 (1972)).

nucleoside oxidase YT-1 [4] = assay: Km value; details: read-out: apparent Km value
Experimental: as §1

nucleoside oxidase YT-1 [5] = details: for Effect of inhibitor (enzyme inhibited): statement in words
Experimental: A solution of the present enzyme (0.02 U) was caused to act on inosine at pH 6.0 and 25° C. for 10 minutes in the presence of various inhibitors, and the enzymatic activity was thereafter measured.

nucleoside oxidase YT-1 [6] = assay: Specificity test on laccase substrate (laccase-like activity in presence of inosine); details: 1 mM laccase substrate, 7 mM inosine, one unit enzyme, 5 minutes
Experimental: The present enzyme was tested for the substrate specificity of its laccase-like activity in the presence of 7 mM inosine in the following manner. One unit of the present enzyme was added to a specimen containing 7 mM of inosine and 1 mM of the laccase substrate shown in Table 5, and the mixture was allowed to stand for 5 minutes. The absorption spectrum of the specimen was obtained before and after the addition of the enzyme.

[7] = inhibitor 1 mM, enzyme 0.02 U on inosine, pH 6.0, 25° C., 10 minutes
[8] = inhibitor 10 mM, enzyme 0.02 U on inosine, pH 6.0, 25° C., 10 minutes

Work on `Nc1ncnc2c1ncn2[C@@H]1O[C@H](COP(=O)(O)O)[C@@H](O)[C@H]1O` [5'-AMP, 5'-adenosine monophosphate] yielded a Relative activity (nucleoside oxidase YT-1 [1]; substrate 10 mM) of 0%.
In the case of `O=S(=O)([O-])[O-].[Zn+2]` [ZnSO4], the Relative activity (nucleoside oxidase YT-1 [2]; metal salt 0.1 mM) is reported as 106% and the Relative activity (nucleoside oxidase YT-1 [2]; metal salt 1.0 mM) is reported as 98.9%.
Molecule `O=S(=O)([O-])[O-].[Fe+2]` [FeSO4] has a Relative activity (nucleoside oxidase YT-1 [2]; metal salt 0.1 mM) of 93.4%.
`OC[C@H]1O[C@@H](n2cnc3c(O)ncnc32)[C@H](O)[C@@H]1O` [Inosine] was tested, and the hydrogen peroxide formed (nucleoside oxidase YT-1 [3]; 50 nanomoles of inosine as substrate) was “No hydrogen peroxide was detected”, the oxygen consumption (nucleoside oxidase YT-1 [3]; 50 nanomoles of inosine, one U enzyme) was 51 nmol and the P-2 produced (nucleoside oxidase YT-1 [3]; from 50 nanomoles of inosine, one U enzyme) was 47 nmol. For the same molecule, the Km (nucleoside oxidase YT-1 [4]) was 44 µM, the “Substrate specificity (enzyme active / not active on substance)” value (nucleoside oxidase YT-1 [1]; statement in words) was “Active” and the Relative activity (nucleoside oxidase YT-1 [1]; substrate 10 mM) was 100%.
Work on `Nc1ncnc2c1ncn2[C@@H]1O[C@H](COP(=O)(O)OP(=O)(O)O)[C@@H](O)[C@H]1O` [5'-ADP] yielded a Relative activity (nucleoside oxidase YT-1 [1]; substrate 10 mM) of 0%.
For `O=c1[nH]c(=O)c2[nH]cnc2[nH]1` [Xanthine], the Relative activity (nucleoside oxidase YT-1 [1]; substrate 0.4 mM) was 0%.
For `O=c1[nH]c(=O)c2ncn([C@@H]3O[C@H](CO)[C@@H](O)[C@H]3O)c2[nH]1` [Xanthosine], the Relative activity (nucleoside oxidase YT-1 [1]; substrate 10 mM) was 125%.
`[N-]=[N+]=[N-]` [Sodium azide] was tested, and the Relative activity (nucleoside oxidase YT-1 [5]; [7]) was 81.5%, the Relative activity (nucleoside oxidase YT-1 [5]; [8]) was 45.6% and the “Effect of inhibitor (enzyme inhibited)” value (nucleoside oxidase YT-1 [5]) was “inhibited”.
`O=C[C@H]1O[C@@H](n2cnc3c(=O)[nH]cnc32)[C@H](O)[C@@H]1O` [P-1, inosine-5'-aldehyde] was tested, and the oxygen consumption (nucleoside oxidase YT-1 [3]; 100 nanomoles of P-1, one U enzyme) was 48 nmol, the hydrogen peroxide formed (nucleoside oxidase YT-1 [3]; 100 nanomoles of P-1 as substrate) was “No hydrogen peroxide was detected” and the P-2 produced (nucleoside oxidase YT-1 [3]; from 100 nanomoles of P-1, one U enzyme) was 97 nmol. The “change on reaction with the enzyme sample (HPLC)” value (nucleoside oxidase YT-1 [3]) was “changed into P-2 with consumption of oxygen”.
In the case of Mercury p-chorobenzoate, the Relative activity (nucleoside oxidase YT-1 [5]; [7]) is reported as 98.9%.
`OC[C@H]1O[C@@H](n2cnc3c(O)ncnc32)C[C@@H]1O` [Deoxyinosine] gave a Relative activity (nucleoside oxidase YT-1 [1]; substrate 10 mM) of 80.7%.
For `Cc1c[nH]c(=O)[nH]c1=O` [Thymine], the Relative activity (nucleoside oxidase YT-1 [1]; substrate 20 mM) was 0%.
`Nc1ncnc2c1ncn2[C@@H]1O[C@H](CO)[C@@H](O)[C@H]1O` [Adenosine] was tested, and the Relative activity (nucleoside oxidase YT-1 [1]; substrate 10 mM) was 97.3%.
`O=C(O)[C@H]1O[C@@H](n2cnc3c(=O)[nH]cnc32)[C@H](O)[C@@H]1O` [P-2, inosine-5'-carboxylic acid] was tested, and the “change on reaction with the enzyme sample (HPLC)” value (nucleoside oxidase YT-1 [3]) was “exhibited no change”.
For `NO` [Hydroxylamine], the Relative activity (nucleoside oxidase YT-1 [5]; [7]) was 87.8% and the Relative activity (nucleoside oxidase YT-1 [5]; [8]) was 63.2%.
In the case of `Nc1ccc(N)cc1` [p-Phenylendiamine], the “Change in absorption spectrum due to reaction” value (nucleoside oxidase YT-1 [6]) is reported as “New peak at 490 nm”.
`Nc1ncnc2c1ncn2[C@@H]1O[C@H](COP(=O)(O)OP(=O)(O)OP(=O)(O)O)[C@@H](O)[C@H]1O` [5'-ATP] gave a Relative activity (nucleoside oxidase YT-1 [1]; substrate 10 mM) of 0%.
With `O=C1C=CC(=O)C=C1` [p-Quinone] the “Change in absorption spectrum due to reaction” value (nucleoside oxidase YT-1 [6]) was “No change”.
With `O=P(O)(O)OC[C@H]1OC(O)[C@H](O)[C@@H]1O` (stereo partly drawn) [D-ribose-5-phosphoric acid] the Relative activity (nucleoside oxidase YT-1 [1]; substrate 20 mM) was 0%.
`Nc1nc2c(ncn2[C@@H]2O[C@H](COP(=O)(O)O)[C@@H](O)[C@H]2O)c(=O)[nH]1` [5'-GMP] gave a Relative activity (nucleoside oxidase YT-1 [1]; substrate 10 mM) of 0%.
In the case of `Cc1cn([C@H]2C[C@H](O)[C@@H](CO)O2)c(=O)[nH]c1=O` [Thymidine], the Relative activity (nucleoside oxidase YT-1 [1]; substrate 10 mM) is reported as 55.8%.
Work on `O=P(O)(O)OC1O[C@H](CO)[C@@H](O)[C@H]1O` (stereo partly drawn) [D-ribose-1-phosphoric acid] yielded a Relative activity (nucleoside oxidase YT-1 [1]; substrate 20 mM) of 0%.
With `N#CO` [Potassium cyanate] the Relative activity (nucleoside oxidase YT-1 [5]; [7]) was 34.8%, the Relative activity (nucleoside oxidase YT-1 [5]; [8]) was 0% and the “Effect of inhibitor (enzyme inhibited)” value (nucleoside oxidase YT-1 [5]) was “inhibited”. The “Effect of inhibitor (enzyme inhibited)” value (nucleoside oxidase YT-1 [5]; listed as potassium cianate) was “Inhibited”.
(NH4)6 Mo7 O24 gave a Relative activity (nucleoside oxidase YT-1 [2]; metal salt 0.1 mM) of 106% and a Relative activity (nucleoside oxidase YT-1 [2]; metal salt 1.0 mM) of 102%.
With `Nc1ncnc2nc[nH]c12` [Adenine] the Relative activity (nucleoside oxidase YT-1 [1]; substrate 10 mM) was 0%.
Molecule `[Cl-].[Cl-].[Co+2]` [CoCl2] has a Relative activity (nucleoside oxidase YT-1 [2]; metal salt 0.1 mM) of 103%.
For `CCN(CC)C(=S)S` [Sodium N,N'-Diethylditiocarbamate, Sodium N,N'-Diethylditio-carbamate], the Relative activity (nucleoside oxidase YT-1 [5]; [7]) was 271%.
`O=C(O)CN(CCN(CC(=O)O)CC(=O)O)CC(=O)O` [EDTA] was tested, and the Relative activity (nucleoside oxidase YT-1 [5]; nucleoside oxidase yt-1, pH 6, 10 min, 1000 µM) was 101%.
